Values quoted from earlier work in patent publication US20230330115A1 (priority 2022, published 2023).
“Also recorded” adds a separate entry of the source.

Legend:
CB2 [1] = target: T1, CB2 (Homo sapiens, UniProt P34972); details: read-out: Binding Affinity CB2
CB1 receptor = details: read-out: Binding Affinity CB1
CB1 = CB1 (Homo sapiens, UniProt P21554); details: read-out: Functional Activity CB1
CB2 [2] = target: T1, CB2; details: read-out: Functional Activity CB2
rodents = rodents administered THCB

T1 sequence (P34972 whole entry): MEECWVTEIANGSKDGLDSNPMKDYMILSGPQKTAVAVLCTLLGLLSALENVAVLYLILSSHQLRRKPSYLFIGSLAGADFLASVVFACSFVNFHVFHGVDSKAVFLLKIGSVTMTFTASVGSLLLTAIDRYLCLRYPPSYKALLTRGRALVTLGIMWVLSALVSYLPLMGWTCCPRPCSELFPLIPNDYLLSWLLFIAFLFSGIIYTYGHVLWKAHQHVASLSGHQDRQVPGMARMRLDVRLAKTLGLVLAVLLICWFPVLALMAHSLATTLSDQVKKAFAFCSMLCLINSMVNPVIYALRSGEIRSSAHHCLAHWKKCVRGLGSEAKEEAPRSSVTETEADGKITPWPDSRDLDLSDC
Sequence of CB1 (P21554 whole entry): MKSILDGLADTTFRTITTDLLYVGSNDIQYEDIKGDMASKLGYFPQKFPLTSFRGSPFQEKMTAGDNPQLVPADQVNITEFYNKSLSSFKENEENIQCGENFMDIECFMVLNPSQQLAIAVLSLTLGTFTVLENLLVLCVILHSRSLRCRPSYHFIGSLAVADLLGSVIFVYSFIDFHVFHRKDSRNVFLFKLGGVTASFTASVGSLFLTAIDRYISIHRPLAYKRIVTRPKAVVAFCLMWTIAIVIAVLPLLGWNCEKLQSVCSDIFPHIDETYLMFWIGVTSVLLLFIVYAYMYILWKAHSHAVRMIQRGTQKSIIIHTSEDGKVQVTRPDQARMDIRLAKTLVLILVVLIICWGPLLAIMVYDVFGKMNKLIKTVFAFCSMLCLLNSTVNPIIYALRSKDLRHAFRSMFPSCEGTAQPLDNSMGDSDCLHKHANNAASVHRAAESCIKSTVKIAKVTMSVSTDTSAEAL

Compound	Ki (CB2 [1]) [µM]	Ki (CB1 receptor) [µM]	EC50 (CB1) [µM]	EC50 (CB2 [2]) [µM]	further results
CCCCCc1cc(O)c2c(c1)OC(C)(C)c1ccc(C)cc1-2 [CBN, Cannabinol]	0.168 ± 0.032	0.368 ± 0.121	0.307 ± 0.039	0.289 ± 0.038	–
CCCCc1cc(O)c2c(c1)OC(C)(C)[C@@H]1CCC(C)=C[C@@H]21 (relative stereo) [THCB, (—)trans-delta-9-tetrahydrocannabibutol]	–	0.015	–	–	catalepsy, analgesia, hypolocomotion (mice; first phase (10 mg/kg)): no significant catalepsy, analgesia, or hypolocomotion; also recorded: no significant catalepsy, analgesia, or hypo locomotion; hypothermic effect (decrease) (mice; first phase (10 mg/kg)): less than 0.5 °C; activity type corroborated by Tetrad Test (mice; mice): CB1 partial agonistic activity; catalepsy and analgesia (mice; second phase (20 mg/kg)): significant direct effect on catalepsy and analgesia; also recorded: very significant catalepsy and analgesia effect; hypolocomotion (mice; second phase (20 mg/kg)): slight direct effect on hypolocomotion; hypothermic effect (mice; second phase (20 mg/kg)): appears to reverse; also recorded: reversal in the second phase; formalin test outcome (rodents): possible analgesic and anti-inflammatory properties
CCCCCc1cc(O)c2c(c1)OC(C)(C)[C@@H]1CCC(CO)=C[C@@H]21 [11-Hydroxy, 11-OH-delta-9-tetrahydrocannabinol]	–	< 0.2	< 0.2	–	–
CCCCCCCc1cc(O)c2c(c1)OC(C)(C)[C@@H]1CCC(C)=C[C@@H]21 (relative stereo) [THCP, (—)trans-delta-9-tetrahydrocannabiphorol]	–	0.0012	–	–	hypothermia, dose dependence (mice; 5 mg/Kg vs 10 mg/Kg): does appear to increase at higher doses; potency at CB1 relative to THC (mice; Tetrad Test in mice, even at low doses (5 mg/kg of body weight)): about 30 times; effects in mice (Tetrad Test criteria) (mice; mice): hypomotility, analgesia, catalepsy and decreased rectal temperature; dose dependence of the effects (mice; mice, increasing dose (5 mg/Kg vs 10 mg/Kg)): do not appear to increase as the dose increases
CCCCCc1cc(O)c(C/C=C(\C)CCC=C(C)C)c(O)c1C(=O)O [CBGA, Cannabigerolic acid]	> 10	4.53	0.182 ± 0.032	0.118 ± 0.027	–
CCCCCc1cc(O)c(C/C=C(\C)CCC=C(C)C)c(O)c1 [CBG, Cannabigerol]	–	0.44	> 10	1.16	–
CCCc1cc(O)c2c(c1)OC(C)(C)[C@@H]1CCC(C)=C[C@@H]21 (single isomer, unassigned) [THCV, (—)trans-delta-9-tetrahydrocannabivarin]	0.105 ± 0.021	0.022 ± 0.005	> 10	> 10	–
Cannabichromanone D [CBCN D]	2.83	7.12	0.008 ± 0.0009	3.95	–
CCCCCc1cc2c(c(O)c1C(=O)O)[C@@H]1C=C(C)CC[C@H]1C(C)(C)O2 (relative stereo) [THCA, (—)trans-delta-9-tetrahydrocannabinolic acid]	1.65	1.29	> 10	> 10	–
C=C(C)[C@@H]1CCC(C)=C[C@H]1c1c(O)cc(CCC)cc1O [CBDV, Cannabidivarin]	3.97	0.503 ± 0.058	> 10	0.003 ± 0.008	–
